Data on seven compounds can be found in patent publication US5610171A, “Inhibition of metastasis in patients having cancer with pyridyloxazole-2-ones” (Merrell Pharmaceuticals Inc., priority 1995, dated 1997).

SMILES strings stand for the structures. Like-named read-outs stand apart in the source and are kept apart here.

The subject of one test is membrane-associated PKC. The test can be described thus: Inhibition of B16F1 membrane-associated PKC activity. Particulars: B16F1 membrane fraction. The class given is biochemical, murine. On the procedure: (§1) Protein Kinase C Preparation
(§2) Cytostolic and membrane-associated PKC was prepared as described in Thomas, T. P., Gopalakrishna, R. and Anderson, W. B. Hormone- and tumor promoter-induced activation of membrane association of protein kinase C in intact cells, Methodsin Enzymology, 141: 399-411, 1987. Sub-confluent B16F1 cultures (4×10^7 cells total) were washed twice with phosphate buffered saline (PBS), pH 7.2 and then twice with buffer A (20 mM Tris, pH 7.5, 2 mM EDTA, 0.5 mM EGTA, […], 2 mM phenylmethylsulfonyl fluoride (PMSF), and 2 μg/ml leupeptin). Cells were scraped from the plates in buffer A, homogenized (40 strokes) and sedimented by centrifugation for 1 hour at 100,000 g. The cytosol was stored on ice while the particulate fraction was washed with buffer B (20 mM Tris, pH 7.2, 2 mM EDTA, 0.5 mM EGTA, and 2 mM (PMSF). The membranes were resuspended with buffer B and homogenized with 10 strokes. Nonidet P-40 (1% final concentration) was added and the mixture was incubated for 30 minutes at 4° C. in a rotating mixer. Nonsolubilized material was removed by centrifugation for 10 minutes at 1400 g. Cytostolic and membrane-bound PKC was partially purified by chromatography over 1 ml columns of DE-52 (Whatman) equilibrated with buffer B. The enzyme was applied to the column and washed with 2×3 ml buffer B. Elution of PKC was then effected by the addition of 2 ml buffer B containing 100 mM NaCl.
(§3) PKC was quantitated as described in Thomas et al., ibid. The assay contained 20 mM Tris (pH 7.5), 0.75 mM CaCl, 10 mM magnesium acetate, […] histone III-S, 0.25 μg/ml leupeptin, 100 μM [gamma-^32 p]-ATP (120 cpm/pmol), 0.96 μg/ml phosphatidylserine, and 0.0064 μg/ml 1,2-diolein in a total assay volume of 250 μl. Blanks contained no calcium or phospholipids. Incubation was for 5 minutes at 30° C. at which point the reaction was terminated by the addition of 1 ml 25% trichloroacetic acid (TCA). Samples were applied to Whatman GF/B filters, the tube rinsed twice with 5% TCA and the filter then washed 5 times with 5% TCA.

In another test the test system is B16F1 cells. The experiment in a line: Experimental lung metastasis assay (B16F1 cells treated in culture, then injected intravenously into C57BL/6 mice). It counts as in vivo, murine (C57BL/6 mice). The note with it: Mus musculus, B16-F1, iv, read-out: B16 Metastasis IC50. On the procedure:
Experimental Metastasis Assay
Sub-confluent B16F1 cells were harvested by washing with HBSS followed by trypsinization for 1 minute. The cells were sedimented by centrifugation (250 g, 5 minutes) and washed twice with HBSS. Viable cells were counted after dilution with trypan blue. A single-cell suspension of 10^5 cells in 0.2 ml HBSS was injected intravenously into 16-18 C57BL/6 mice via the tail vein. Three weeks later, the number of metastatic foci in the lung were counted.

The test system of a further test is cytosolic PKC. The experiment in a line: Inhibition of B16F1 cytosolic PKC activity. Particulars: B16F1 cytosol fraction. The class given is biochemical, murine. As for the experimental part: as §1, §2, §3
^a Subconfluent B16F1 cells were harvested and cytosol and membrane
fractions prepared as described in Materials and Methods. PKC activity wa
then measured in the presence of the drugs listed.

Test [1] relates to SP1 mouse mammary adenocarcinoma cells. Particulars: cells normally do not metastasize; cited from earlier work.
The next test relates to collagen IV. The test can be described thus: Adhesion of B16F1 cells to collagen IV. It counts as cell-based. The note with it: 24 hours. As for the experimental part: (§4) Adhesion of B16F1 Cells to Basement Membrane Proteins
(§5) Adhesion proteins (2 μg/well) were coated onto Immulon I Removawells from Dynatech and incubated for 1 hour at 37° C. The wells were then blocked for 1 hour with 400 μl PBS, pH 7.2 containing 1% bovine serum albumin (BSA) at 37° C. Prior to addition of the cell suspension, the blocking solution was aspirated.
(§6) Sub-confluent cells were washed twice with HBSS and removed form flasks by incubation for 10 minutes at 37° C. with PBS (pH 7.2), 2 mM EDTA, and 1% BSA. The cells were washed twice with MEM containing 20 mM HEPES and 0.1% BSA and resuspended in the same medium to give a cell density of […].
(§7) Cells were added to wells in 50 μl (5×10^4 cells) and incubated at 37° C. The wells were aspirated and washed three times with 400 μl PBS (pH 7.2) containing 0.1% BSA. Wells were detached and counted in 5 ml Beckman Ready Protein. Blanks were not coated with protein but were blocked with BSA as described above.

The subject of test [2] is B16F1 cells / human umbilical vein endothelial cells (HUVEC). The experiment in a line: Adhesion of B16F1 melanoma cells to endothelial cells (HUVEC). The class given is cell-based, murine B16F1 cells; human HUVEC. On the procedure:
Adhesion of Tumor Cells to Endothelial Cells
Round 15 mm Thermanox tissue culture cover slips from Lux were placed in Corning 12-well, 22 mm diameter tissue culture clusters. HUVEC (2×10^6) were added to each well and grown to confluency. Sub-confluent B16F1 cells were labeled with 1 μCi/ml [^3 H]-thymidine (New England Nuclear, 78.5 Ci/mmol) for 24 hours at 37° C.
In preparation for the adhesion assay, the tissue culture wells containing either HUVEC or no cells were blocked with MEM containing 20 mM HEPES and 1% BSA for 1 hour at 37° C. B16F1 cells were removed from the flasks as described above for adhesion to basement membrane proteins and diluted to a density of 2×10^5 viable cells/ml in MEM (viability determined by trypan blue exclusion).
Blocking solution was aspirated from the wells and 1 ml of cells were added per well and incubated at 37° C. Nonadherent cells were washed from coverslips as described in Wright, P. S., Cross-Doersen, D., McCann, P. P. and Bitonti, A. J., Plasmodium falciparum: a rapid assay for cytoadherence of [^3 H]-hypoxanthine-labeled infected erythrocytes to human melanoma cells, Exp. Parasitol., 71: 346-349, 1990. Coverslips were retrieved from the well with forceps and dipped 10 times into a beaker of 100 ml MEM. Coverslips were placed into scintillation vials and counted in 10 ml Beckman Ready Protein.
B16F1 cells were treated with 4-propyl-5(4-pyridinyl)-
(3H)-oxazolone for 24 hours at 37° C. Cells were then
harvested and added to wells containing confluent HUVEC
cells and incubated for the time indicated at 37° C. Details
are given in Materials and Methods.

The next test has as its system fibrinogen. The experiment in a line: Adhesion of B16F1 cells to fibrinogen. Particulars: 24 hours. It counts as cell-based. On the procedure:
as §4, §5, §6, §7

The test system of test [3] is B16 murine melanoma cells. Particulars: cells treated in vitro, intravenous injection into mice; cited from earlier work.
For test [4], the system named is Lewis lung carcinoma cells. The note with it: cited from earlier work.
[5] abbreviates: cells exposed to drugs for 24 hours, nodules counted three weeks later.

On to `Cc1[nH]c(=O)oc1-c1ccncc1` [Compound 2, 4methyl-5-(4-pyridinyl)-2(3H)-oxazolone], for which the values for the IC50 in the test with membrane-associated PKC, with B16F1 cells (setting [5]) and with cytosolic PKC were 250 µM, 36 µM and 500 µM, respectively.
In the case of `CCc1[nH]c(=O)oc1-c1ccnc2ccccc12` [Compound 3, 4ethyl-5-(4-quinolinyl)-2(3H)-oxazolone], the IC50 with membrane-associated PKC turned out to be 15 µM; in the test on B16F1 cells (setting [5]), 68 µM; in the test on cytosolic PKC, 47 µM.
With `CCCc1[nH]c(=O)oc1-c1ccnc2ccccc12` [Compound 4, 4propyl-5-(4-quinolinyl)-2(3H)-oxazolone], the IC50 in the test on membrane-associated PKC was 94 µM; in the test on cytosolic PKC, 62 µM.
As to `CNc1ccc2oc(C[C@H]3O[C@@]4(CC[C@H]3C)O[C@H]([C@H](C)C(=O)c3ccc[nH]3)[C@H](C)C[C@H]4C)nc2c1C(=O)O` [Compound A23187], in [1], the “metastasis from the primary tumor” value is given as “resulted in metastasis from the primary tumor”.
Take `CC1CNCCN1S(=O)(=O)c1cccc2cnccc12` (stereo not shown) [Compound H-7, reference compound]: the “adhesion to collagen IV” value with collagen IV is reported as “Neither H-7 nor staurosporine inhibited adherence”. Besides, the half-inhibitory concentration (IC50) worked out at 71 µM with membrane-associated PKC, 12.5 µM in the test with B16F1 cells and 180 µM in the test with cytosolic PKC. The “adherence to HUVEC” value in test [2] is recorded as “Neither H-7 nor staurosporine inhibited adherence”. The adhesion to fibrinogen result in the test on fibrinogen is “Neither H-7 nor staurosporine inhibited adherence”.
For the compound `CCCCCCCCCCCCCC(=O)O[C@@H]1[C@@H](C)[C@@]2(O)[C@@H](C=C(CO)C[C@]3(O)C(=O)C(C)=C[C@@H]23)[C@@H]2C(C)(C)[C@]12OC(C)=O` [PMA, phorbol-12-myristate-13-acetate], in [1], the “metastasis from the primary tumor” value is recorded as “resulted in metastasis from the primary tumor”. For the same compound, the “number of metastatic foci in lungs” value in test [3] is given as “increased numbers of metastatic foci in lungs”. In [4], the “adhesion to endothelial cells” value is recorded as “enhancement of adhesion to endothelial cells”.
In the case of `CN[C@@H]1C[C@H]2O[C@@](C)([C@@H]1OC)n1c3ccccc3c3c4c(c5c6ccccc6n2c5c31)C(=O)NC4` [Staurosporine, reference compound], the “adhesion to collagen IV” value in the test with collagen IV is on record as “Neither H-7 nor staurosporine inhibited adherence”. Further, the “adherence to HUVEC” value in test [2] was “Neither H-7 nor staurosporine inhibited adherence”. For the same compound, the IC50 in the test on cytosolic PKC amounted to 0.019 µM. Further, the adhesion to fibrinogen result in the test with fibrinogen is given as “Neither H-7 nor staurosporine inhibited adherence”.
